Source: US8084645B2, “4-phenylamino-benzaldoxime derivatives and uses thereof as mitogen-activated protein kinase kinase (MEK) inhibitors” (Chugai Seiyaku Kabushiki Kaisha, priority 2003, dated 2011)
In brackets after ≈: the same amount, converted by molar mass.

Legend:
[1] = Determination of stability against mouse liver microsomes; type: in vitro ADME; details: mouse liver microsomes 1 mg protein/mL, 2 mM NADPH, pH 7.4, 37 C; read-out: Stability against mouse liver microsome NADPH+ T1/2
Description: The enzyme reaction was quenched with three volumes of acetonitrile, and the reaction mixture was centrifuged at 1,500 rpm for ten minutes to provide a supernatant as a sample to be measured. Stability against mouse liver microsomes was measured using HPLC/MS to determine the compounds in the sample.

[2] = system: Human colon cancer cell line HT-29; assay: Determination of the activity of inhibiting cell proliferation (Cell Counting Kit-8); type: cell-based; details: HT-29, 96 h, HT29, 2,000 cells/well, incubated four days, read-out: Cell proliferation inhibitory activity (HT29) IC50
Description: Human colon cancer cell line HT-29, obtained from American Type Culture Collection (VA, USA), and human non-small cell lung cancer cell line QG56, obtained from Immuno-Biological Laboratories Co., Ltd., were plated at 2,000 cells/well in a 96-well culture plate, and incubated for four days after addition of a MEK inhibitor of a given concentration.

MEK = MEK (Homo sapiens, UniProt Q02750); assay: Determination of MEK inhibitory activities (Raf-1 kinase cascade assay, MBP phosphorylation, 33P-ATP)
MEK, sequence (Q02750 whole entry): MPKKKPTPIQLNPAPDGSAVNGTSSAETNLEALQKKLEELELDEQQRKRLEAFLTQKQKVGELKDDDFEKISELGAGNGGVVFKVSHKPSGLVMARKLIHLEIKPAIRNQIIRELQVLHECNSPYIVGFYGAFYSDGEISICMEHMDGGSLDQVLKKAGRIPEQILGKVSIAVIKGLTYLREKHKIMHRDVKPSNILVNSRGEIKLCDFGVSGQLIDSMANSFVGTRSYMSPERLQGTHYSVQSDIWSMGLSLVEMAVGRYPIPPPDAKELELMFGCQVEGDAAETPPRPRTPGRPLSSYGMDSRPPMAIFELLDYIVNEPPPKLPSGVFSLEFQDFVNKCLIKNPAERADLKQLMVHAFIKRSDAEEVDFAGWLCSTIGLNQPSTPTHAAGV
Description: The radioisotope used was [γ^33P]-ATP (Amersham Biosciences, K.K.).

[3] = Determination of water solubility (equilibrium stirring method); type: physicochemical; details: 50 mM phosphate buffer pH 6.5, room temperature (20 C); for solubility at 2 h: aqueous buffer, thermodynamic from solid, read-out: Water solubility (LySA PH 6.5)
Description: The vessels were sealed, and the contents were sonicated at room temperature (20° C.) for ten minutes, and then stirred with a stirrer for two hours. After reaching solution equilibrium, the solution was separated with a membrane filter, and the solute concentration was determined using HPLC.

| Compound | half-life [1] [h] | IC50 [2] [nM] | IC50 (MEK) [nM] | Water solubility (LySA PH 6.5) [3] [µM] | solubility at 2 h [3] [µM] |
| --- | --- | --- | --- | --- | --- |
| O=C(NOCCO)c1cc(/C=N/OCCN2CCCCC2)c(F)c(F)c1Nc1ccc(I)cc1F [Compound 17, (E)-3,4-difluoro-2-(2-fluoro-4-iodo-phenylamino)-N-(2-hydroxy-ethoxy)-5-[(2-piperidin-1-yl-ethoxyimino)-methyl]-benzamide] | > 6 | 920 | 287 | – | 462 (≈ 280 µg/mL) |
| O=C(NOCCO)c1cc(/C=N/OCc2cnc[nH]2)c(F)c(F)c1Nc1ccc(I)cc1F [Compound 29, (E)-3,4-difluoro-2-(2-fluoro-4-iodo-phenylamino)-N-(2-hydroxy-ethoxy)-5-[(3H-imidazol-4-ylmethoxyimino)-methyl]-benzamide] | – | 165 | 576 | – | – |
| O=C(NOCCO)c1cc(/C=N/OCc2ccncc2)c(F)c(F)c1Nc1ccc(I)cc1F [Compound 30, (E)-3,4-difluoro-2-(2-fluoro-4-iodo-phenylamino)-N-(2-hydroxy-ethoxy)-5-[(pyridin-4-ylmethoxyimino)-methyl]-benzamide] | > 6 | 790 | 88 | – | < 31.3 |
| CO/N=C/c1cc(C(=O)NOCCO)c(Nc2ccc(I)cc2F)c(F)c1F [Compound 31, (E)-3,4-difluoro-2-(2-fluoro-4-iodo-phenylamino)-N-(2-hydroxy-ethoxy)-5-[methoxyimino-methyl]-benzamide] | – | 463 | 335 | – | – |
| CC(C)(O)CCO/N=C/c1cc(C(=O)NOCCO)c(Nc2ccc(I)cc2F)c(F)c1F [Compound 33, (E)-3,4-difluoro-2-(2-fluoro-4-iodo-phenylamino)-N-(2-hydroxy-ethoxy)-5-[(3-hydroxy-3-methyl-butoxyimino)-methyl]-benzamide] | – | 275 | 37.5 | – | < 7.8 |
| O=C(NOCCO)c1cc(/C=N/OCC2(CO)CC2)c(F)c(F)c1Nc1ccc(I)cc1F [Compound 35, (E)-3,4-difluoro-2-(2-fluoro-4-iodo-phenylamino)-N-(2-hydroxy-ethoxy)-5-[(1-hydroxymethyl-cyclopropylmethoxyimino)-methyl]-benzamide] | – | 203 | 30.4 | – | < 7.8 |
| O=C(NOCCO)c1cc(/C=N/OCCCCO)c(F)c(F)c1Nc1ccc(I)cc1F [Compound 36, (E)-3,4-difluoro-2-(2-fluoro-4-iodo-phenylamino)-5-[(4-hydroxy-butoxyimino)-methyl]-N-(2-hydroxy-ethoxy)-benzamide] | – | 365 | 45 | – | < 7.8 |
| COC(C)(C)CCO/N=C/c1cc(C(=O)NOCCO)c(Nc2ccc(I)cc2F)c(F)c1F [Compound 37, (E)-3,4-difluoro-2-(2-fluoro-4-iodo-phenylamino)-N-(2-hydroxy-ethoxy)-5-[(3-methoxy-3-methyl-butoxyimino)-methyl]-benzamide] | – | 600 | 287 | – | – |
| COCCO/N=C/c1cc(C(=O)NOCCO)c(Nc2ccc(I)cc2F)c(F)c1F [Compound 38, (E)-3,4-difluoro-2-(2-fluoro-4-iodo-phenylamino)-N-(2-hydroxy-ethoxy)-5-[(2-methoxy-ethoxyimino)-methyl]-benzamide] | – | 476 | 395 | – | – |
| CC(C)(O)CO/N=C\c1cc(C(=O)NOCCO)c(Nc2ccc(I)cc2F)c(F)c1F [Compound 51, (Z)-3,4-Difluoro-2-(2-fluoro-4-iodo-phenylamino)-N-(2-hydroxy-ethoxy)-5-[(2-hydroxy-2-methyl-propoxyimino)-methyl]-benzamide] | – | 6 | 21 | – | < 7.8 |

Other lines, results leading:

| half-life [1] [h] | IC50 [2] [nM] | IC50 (MEK) [nM] | Water solubility (LySA PH 6.5) [3] [µM] | solubility at 2 h [3] [µM] | Compound |
| --- | --- | --- | --- | --- | --- |
| > 6 | < 19.5 | 37 | 15 | – | CC(C)(O)CO/N=C/c1cc(C(=O)NOCCO)c(Nc2ccc(I)cc2F)c(F)c1F [Compound 12, (E)-3,4-difluoro-2-(2-fluoro-4-iodophenylamino)-N-(2-hydroxy-ethoxy)-5-[(2-hydroxy-2-methyl-propoxyimino)-methyl]-benzamide] |
| 0.767 | 38 | 9.7 | – | 14 (≈ 8.12 µg/mL) | CNC(=O)CCO/N=C/c1cc(C(=O)NOCCO)c(Nc2ccc(I)cc2F)c(F)c1F [Compound 14, (E)-3,4-difluoro-2-(2-fluoro-4-iodo-phenylamino)-N-(2-hydroxy-ethoxy)-5-[(2-methylcarbamoyl-ethoxyimino)-methyl]-benzamide] |
| – | 88 | 85 | – | – | CNCCO/N=C/c1cc(C(=O)NOCCO)c(Nc2ccc(I)cc2F)c(F)c1F [Compound 23, (E)-3,4-difluoro-2-(2-fluoro-4-iodo-phenylamino)-N-(2-hydroxy-ethoxy)-5-[(2-methylamino-ethoxyimino)-methyl]-benzamide] |
| – | 84 | 1250 | – | – | CC(C)O/N=C/c1cc(C(=O)NOCCO)c(Nc2ccc(I)cc2F)c(F)c1F [Compound 32, (E)-3,4-difluoro-2-(2-fluoro-4-iodo-phenylamino)-N-(2-hydroxy-ethoxy)-5-[isopropoxyimino-methyl]-benzamide] |
| – | 143 | 69 | – | < 7.8 | CC(C)(CO)CO/N=C/c1cc(C(=O)NOCCO)c(Nc2ccc(I)cc2F)c(F)c1F [Compound 34, (E)-3,4-difluoro-2-(2-fluoro-4-iodo-phenylamino)-5-[(E)-(3-hydroxy-2,2-dimethyl-propoxyimino)-methyl]-N-(2-hydroxy-ethoxy)-benzamide] |
| – | 114 | 232 | – | < 7.8 | CSCCO/N=C/c1cc(C(=O)NOCCO)c(Nc2ccc(I)cc2F)c(F)c1F [Compound 39, (E)-3,4-difluoro-2-(2-fluoro-4-iodo-phenylamino)-N-(2-hydroxy-ethoxy)-5-[(2-methylsulfanyl-ethoxyimino)-methyl]-benzamide] |
| – | 103 | 107 | – | – | O=C(NOCCO)c1cc(/C=N/OCCOCCO)c(F)c(F)c1Nc1ccc(I)cc1F [Compound 46, (E)-3,4-difluoro-2-(2-fluoro-4-iodo-phenylamino)-N-(2-hydroxy-ethoxy)-5-{[2-(2-hydroxy-ethoxy)-ethoxyimino]-methyl}-benzamide] |
| – | 1.9 | 17 | – | < 7.8 | CS(=O)(=O)CCO/N=C\c1cc(C(=O)NOCCO)c(Nc2ccc(I)cc2F)c(F)c1F [Compound 53, (Z)-3,4-Difluoro-2-(2-fluoro-4-iodo-phenylamino)-N-(2-hydroxy-ethoxy)-5-[(2-methanesulfonyl-ethoxyimino)-methyl]-benzamide] |
| – | 17 | 50 | – | 69 (≈ 41.9 µg/mL) | O=C(NOCCO)c1cc(/C=N\OCCN2CCNC2=O)c(F)c(F)c1Nc1ccc(I)cc1F [Compound 59, (Z)-3,4-difluoro-2-(2-fluoro-4-iodo-phenylamino)-N-(2-hydroxy-ethoxy)-5-{[2-(2-oxo-imidazolidin-1-yl)-ethoxyimino]-methyl}-benzamide] |
| – | 20 | 78 | – | – | O=C(NOCCO)c1cc(/C=N\OCCN2CCCC2=O)c(F)c(F)c1Nc1ccc(I)cc1F [Compound 60, (Z)-3,4-difluoro-2-(2-fluoro-4-iodo-phenylamino)-N-(2-hydroxy-ethoxy)-5-{[2-(2-oxo-pyrrolidin-1-yl)-ethoxyimino]-methyl}-benzamide] |
